# Test results published in patent publication US20030082752A1, “Enzymatic process for producing GDP-alpha-D-mannose, a GDP mannose pyrophosphorylase and phosphomannomutase suitable for that process, the extraction of the said enzymes, and an enzyme test” (priority 1995, published 2003).
# Where two headings read alike, the source gives them in different places.
# B1: Pseudomonas aeruginosa (Shinabarger et al 1991): Bifunctional GDP-Man-PP from Pseudomonas aeruginosa with phosphomannose isomerase and pyrophosphorylase activity (protein, UniProt P07874 1-481, looked up)
# Alginate biosynthesis protein …: MIPVILSGGSGSRLWPLSRKQYPKQFLALTGDDTLFQQTIKRLAFDGMQAPLLVCNKEHRFIVQEQLEAQNLASQAILLEPFGRNTAPAVAIAAMKLVAEGRDELLLILPADHVIEDQRAFQQALALATNAAEKGEMVLFGIPASRPETGYGYIRASADAQLPEGVSRVQSFVEKPDEARAREFVAAGGYYWNSGMFLFRASRYLEELKKHDADIYDTCLLALERSQHDGDLVNIDAATFECCPDNSIDYAVMEKTSRACVVPLSAGWNDVGSWSSIWDVHAKDANGNVTKGDVLVHDSHNCLVHGNGKLVSVIGLEDIVVVETKDAMMIAHKDRVQDVKHVVKDLDAQGRSETQNHCEVYRPWGSYDSVDMGGRFQVKHITVKPGARLSLQMHHHRAEHWIVVSGTAQVTCDDKTFLLTENQSTYIPIASVHRLANPGKIPLEIIEVQSGSYLGEDDIERLEDVYGRTAEPALQVVAGSR
# How the values were obtained:
# [1] = target: T1, GDP-mannose pyrophosphorylase (Salmonella typhimurium, UniProt P26404); format: biochemical, Salmonella enterica, group B; settings: for kmax value: GTP varied at 0.08 mM M-1-P, M-1-P varied at 2 mM GTP
# T1 construct: made in house; host or cells: Escherichia coli BL21(DE3)pLysS with pERJ-1 (pT7-6/rfbM)
# T1 sequence (P26404 whole entry): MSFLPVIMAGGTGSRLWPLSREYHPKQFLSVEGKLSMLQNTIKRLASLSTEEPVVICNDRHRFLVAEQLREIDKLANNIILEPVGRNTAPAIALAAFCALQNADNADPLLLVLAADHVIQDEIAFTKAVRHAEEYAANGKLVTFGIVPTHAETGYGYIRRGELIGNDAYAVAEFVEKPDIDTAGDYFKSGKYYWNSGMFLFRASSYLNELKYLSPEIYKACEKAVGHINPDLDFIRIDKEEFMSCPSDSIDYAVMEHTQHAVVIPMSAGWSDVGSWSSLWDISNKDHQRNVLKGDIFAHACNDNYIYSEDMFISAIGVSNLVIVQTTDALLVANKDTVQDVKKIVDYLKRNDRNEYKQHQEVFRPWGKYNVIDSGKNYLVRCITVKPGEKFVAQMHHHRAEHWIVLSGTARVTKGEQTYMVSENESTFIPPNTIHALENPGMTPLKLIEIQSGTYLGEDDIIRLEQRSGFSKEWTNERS
# Procedure: (§1) GTP was used at concentrations of 0.01-10 mM (FIG. 7).
# b) Nucleoside triphosphate: GTP
# Sugar-1-phosphates: Glucose-1-P, N-acetylglucosamine-1-P-, glucosamine-1-P, galactose-1-P, galactosamine-1-P, N-acetylgalactosamine-1-P, glucuronic acid-1-P, galacturonic acid-1-P, xylose-1-P, mannose-1-P
# (§2) The total volume was 200 μL.
# [2] = target: Salmonella enterica group B (formerly Salmonella typhimurium LT2) GDP-mannose pyrophosphorylase (rfb M, EC 2.7.7.13), recombinant from E. coli BL21(DE3)pLysSpERJ-1 (Salmonella typhimurium, UniProt P26404); assay: biochemical
# Chain of Salmonella enterica group B (formerly Salmonella typhimurium LT2) GDP-mannose pyrophosphorylase (rfb M, EC 2.7.7.13), recombinant from E. coli BL21(DE3)pLysSpERJ-1 (P26404 whole entry): as above
# Text: (§7) In the manner described below, it is possible to determine, by the use of the substrates (sugar-1-phosphates or sugar in the case of neuraminic acid) and nucleoside triphosphates any pyrophosphorylase activity which presents an activity in the test mixture of≧0.2 mU/mL.
# The enzyme test (Nucleotidyl transferase substrate screening assay ‘NUSSA’) is based on the fact that in the nucleotidyl transferase reaction (EC 2.7-7), pyrophosphate is produced with a pyrophosphate-dependent phosphofructokinase (PPiPFK from plants or bacteria EC 2.7.1.90) with fructose-6-phosphate and in the presence of fructose-2,6-diphosphate to make fructose-1,6-diphosphates. This product is cleaved with an aldolase to form dihydroxyacetone phosphate (DHAP) and glycerin-3-phosphate (GAP). From glycerinaldehyde-3-phosphate, dihydroxyacetone phosphate is produced with the triose phosphate isomerase. Finally, dihydroxyacetone phosphate is reduced with glycerin-3-phosphate dehydrogenase to glycerin-3-phosphate (G-3-P) with NADH. 2 mol of NADH are used per mol of pyrophosphate; this consumption can be monitored by photometry.
# 3) Influence of GDP-mannose on the synthesis
# The concentration of GTP was varied between 0.08mM and 6 mm.
# The GDP-mannose was used at 0μM, 50 μM, and 100 μM in the test. […]
# (§8) The total volume was 200 μL. The preparations were measured in a Titertek photometer molecular device, Munich, by photometry. […]
# [3] = tested on: pyrophosphorylases in Escherichia coli BL21(DE3)pLysSpERJ-1 raw extract; assay: NUSSA screening of pyrophosphorylases in E. coli raw extract; format: biochemical; settings: 20 μg/mL raw extract
# Procedure: as §2
# 2) Example: Use of NUSSA for screening pyrophoshorylases in two different enzyme sources: a) Escherichia coli BL21(DE3)pLysSpERJ-1
# (§3) For using the test, the PPIPFK has to be purified. As a simple and easily available enzyme source, potatoes were selected (Solanum tuberosum L.) . The purification was carried out according to the method described by van Schaftingen et al., 1982 in Eur. J. Biochem., Vol. 129, pp. 191-195. The enzyme (PPIPFK) was stored in 25% glycerin at -20° C.
# (§4) Escherichia Coli BL21(DE3)pLysSpERJ-1 was cultured and broken up as described above. The resulting raw homogenate was centrifuged at 10,000 rpm for 2 min, and at 20° C., then used in the enzyme test (21.02 mg/mL). The rice was broken up according to Elling, 1993, German Patent DE 4,221,595 Cl, at 10,000 rpm, 10 min, 20° C., and it was used as a raw extract (4.26 mg/mL) in the enzyme screening. The substrates tested were: […]
# (§5) a) Nucleoside triphosphate: ATP, CTP, GTP, UTP, dTTP, each at 1 mM in the test with glucose-1-phosphate (2.5 mM) b) Nucleoside triphosphate UTP (1 mM)
# (§6) Sugar-1-phosphate, each at 2.5 mM in the test
# [4] = tested on: pyrophosphorylases in rice (Oryza sativa L.) raw extract; assay: NUSSA screening of pyrophosphorylases in rice raw extract; format: biochemical
# Procedure: as §2
# 2) Example: Use of NUSSA for screening pyrophoshorylases in two different enzyme sources: b) Rice (Oryza sativa L.)
# as §3, §4, §5, §6
# [5] = target: Salmonella enterica group B (formerly Salmonella typhimurium LT2) GDP-mannose pyrophosphorylase (rfb M, EC 2.7.7.13), recombinant from E. coli BL21(DE3)pLysSpER (Salmonella typhimurium, UniProt P26404)
# Chain of Salmonella enterica group B (formerly Salmonella typhimurium LT2) GDP-mannose pyrophosphorylase (rfb M, EC 2.7.7.13), recombinant from E. coli BL21(DE3)pLysSpER (P26404 whole entry): as above
# Procedure: as §1, §2
# [6] = tested on: Nc1nc2c(ncn2[C@@H]2O[C@H](COP(=O)(O)OP(=O)(O)OP(=O)(O)O)[C@@H](O)[C@H]2O)c(=O)[nH]1; assay: purified protein, by the assay type; settings: other: GTP 0.01-10 mM, mannose-1-phosphate constant 0.08 mM, NUSSA, Tris-HCl pH 8
# Text: as §7
# The enzyme test (Nucleotidyl transferase substrate screening assay ‘NUSSA’) is based on the fact that in the nucleotidyl transferase reaction (EC 2.7-7), pyrophosphate is produced with a pyrophosphate-dependent phosphofructokinase (PPiPFK from plants or bacteria EC 2.7.1.90) with fructose-6-phosphate and in the presence of fructose-2,6-diphosphate to make fructose-1,6-diphosphates. This product is cleaved with an aldolase to form dihydroxyacetone phosphate (DHAP) and glycerin-3-phosphate (GAP). From glycerinaldehyde-3-phosphate, dihydroxyacetone phosphate is produced with the triose phosphate isomerase. Finally, dihydroxyacetone phosphate is reduced with glycerin-3-phosphate dehydrogenase to glycerin-3-phosphate (G-3-P) with NADH. 2 mol of NADH are used per mol of pyrophosphate; this consumption can be monitored by photometry. [drawing 3]
# GTP was used at concentrations of 0.01-10 mM (FIG. 7). […]
# as §8
# [7] = tested on: O=P(O)(O)O[C@H]1O[C@H](CO)[C@@H](O)[C@H](O)[C@@H]1O; assay: purified protein, by the assay type; settings: other: mannose-1-phosphate 0.002-0.6 mM, GTP constant 2 mM, NUSSA, Tris-HCl pH 8
# [8] = literature, cited from earlier work
# [9] = NTP 1 mM with α-D-glucose-1-phosphate 2.5 mM
# [10] = α-D-sugar-1-phosphate 2.5 mM with UTP 1 mM
# [11] = NTP 1 mM with α-D-glucose-1-phosphate 2.5 mM, 1.06 μg/mL-0.14 mg/mL raw extract
# [12] = α-D-sugar-1-phosphate 2.5 mM with GTP 1 mM
molecule,measurement,setting,value
"Nc1nc2c(ncn2[C@@H]2O[C@H](COP(=O)(O)OP(=O)(O)O[C@H]3O[C@H](CO)[C@@H](O)[C@H](O)[C@@H]3O)[C@@H](O)[C@H]2O)c(=O)[nH]1 [GDP-mannose, GDP-alpha-D-mannose]",type of inhibition with respect to M-1-P,"[1]; GTP constant 2 mM, M-1-P 0.003-0.3 mM",noncompetitive inhibition
same,type of inhibition with respect to GTP,"[1]; M-1-P constant 0.08 mM, GTP 0.08-6 mM",competitive inhibition
same,Ki,[2],14.9 µM
same,Ki,"[2]; Ki value, noncompetitive inhibition with respect to M-1-P, mannose-1-phosphate 0.003-0.3 mM, GTP constant 2 mM, 5.67 μg/mL enzyme",118 µM
Nc1ncnc2c1ncn2[C@@H]1O[C@H](COP(=O)(O)OP(=O)(O)OP(=O)(O)O)[C@@H](O)[C@H]1O [ATP],"Specific activity of pyrophosphorylases, E. coli",[3]; [9],2.76 mU/mg
"O=C(O)[C@H]1O[C@H](OP(=O)(O)O)[C@H](O)[C@@H](O)[C@H]1O [α-D-Galacrurons{overscore (a)}ure-1-P, α-D-Galacturonic acid-1-P]","Specific activity of pyrophosphorylases, E. coli",[3]; [10],3.66 mU/mg
same,"Specific activity of pyrophosphorylases, rice",[4]; [10],2.94 mU/mg
O=c1ccn([C@@H]2O[C@H](COP(=O)(O)OP(=O)(O)OP(=O)(O)O)[C@@H](O)[C@H]2O)c(=O)[nH]1 [UTP],"Specific activity of pyrophosphorylases, E. coli",[3]; [9],214.10 mU/mg
same,"Specific activity of pyrophosphorylases, rice",[4]; [11],982.40 mU/mg
N[C@H]1[C@@H](OP(=O)(O)O)O[C@H](CO)[C@H](O)[C@@H]1O [α-D-Galactosamin-1-P],"Specific activity of pyrophosphorylases, rice",[4]; [10],0.25 mU/mg
Nc1ccn([C@@H]2O[C@H](COP(=O)(O)OP(=O)(O)OP(=O)(O)O)[C@@H](O)[C@H]2O)c(=O)n1 [CTP],"Specific activity of pyrophosphorylases, E. coli",[3]; [9],0.75 mU/mg
"CC(=O)N[C@H]1[C@@H](OP(=O)(O)O)O[C@H](CO)[C@@H](O)[C@@H]1O [α-D-GlcNAc-1, N-acetylglucosamine-1-P-]","Specific activity of pyrophosphorylases, E. coli",[3]; [10],2.02 mU/mg
same,"Specific activity of pyrophosphorylases, rice",[4]; [10],0.27 mU/mg
Nc1nc2c(ncn2[C@@H]2O[C@H](COP(=O)(O)OP(=O)(O)OP(=O)(O)O)[C@@H](O)[C@H]2O)c(=O)[nH]1 [GTP],kmax value (GTP),[5]; pH 8,2.4 U/mg
same,kmax value,[1],2.4 U/mg
O=P(O)(O)O[C@H]1OC[C@@H](O)[C@H](O)[C@H]1O [α-D-Xylose-1-P],"Specific activity of pyrophosphorylases, rice",[4]; [10],0.42 mU/mg
Cc1cn([C@H]2C[C@H](O)[C@@H](COP(=O)(O)OP(=O)(O)OP(=O)(O)O)O2)c(=O)[nH]c1=O [dTTP],"Specific activity of pyrophosphorylases, E. coli",[3]; [9],10.32 mU/mg
same,"Specific activity of pyrophosphorylases, rice",[4]; [11],5.98 mU/mg
"N[C@H]1[C@H](OP(=O)(O)O)O[C@H](CO)[C@@H](O)[C@@H]1O [α-D-Glucosamin-1-P, α-D-Glucosamine-1-P]","Specific activity of pyrophosphorylases, E. coli",[3]; [10],2.75 mU/mg
"Salmonella enterica group B (formerly Salmonella typhimurium LT2) GDP-mannose pyrophosphorylase (rfb M, EC 2.7.7.13), recombinant from E. coli BL21(DE3)pLysSpERJ-1 (Salmonella enterica subsp. enterica serovar Typhimurium str. LT2)",Km,[6],0.2 mM mM
same,Km,[7],0.01 mm mm
"O=P(O)(O)O[C@H]1O[C@H](CO)[C@@H](O)[C@H](O)[C@@H]1O [M-1-P, mannose-1-phosphate]",kmax value (M-1-P),"[5]; vmax, mannose-1-phosphate 0.002-0.6 mM, GTP constant 2 mM, NUSSA, Tris-HCl pH 8",1.8 U/mg
same,kmax value,[1],1.8 U/mg
same,"Specific activity of pyrophosphorylases, E. coli",[3]; [12],3.41 mU/mg
same,"Specific activity of pyrophosphorylases, rice",[4]; [12],1.51 mU/mg
"CC(=O)N[C@H]1[C@@H](OP(=O)(O)O)O[C@H](CO)[C@H](O)[C@@H]1O [α-D-GalNAc-1-P, N-acetylgalactosamine-1-P]","Specific activity of pyrophosphorylases, rice",[4]; [10],0.18 mU/mg
O=P(O)(O)O[C@H]1O[C@H](CO)[C@H](O)[C@H](O)[C@H]1O [α-D-Galactose-1-P],"Specific activity of pyrophosphorylases, E. coli",[3]; [10],1 mU/mg
same,"Specific activity of pyrophosphorylases, rice",[4]; [10],10.41 mU/mg
"O=C(O)[C@H]1O[C@H](OP(=O)(O)O)[C@H](O)[C@@H](O)[C@@H]1O [α-D-Glucurons{overscore (a)}ure-1-P, α-D-Glucuronic acid-1-P]","Specific activity of pyrophosphorylases, E. coli",[3]; [10],4.72 mU/mg
same,"Specific activity of pyrophosphorylases, rice",[4]; [10],14.27 mU/mg
B1,Specific activity after purification,[8]; after purification,6.12 U/mg Protein
same,Specific activities Raw extract,[8]; raw extract,0.397 U/mg Protein
